Laboratory results: patent US20050004044A1, “Use of orsaponin [3beta, 16beta, 17 alpha-trihydroxycholost-5-en-22-one 16-0-(2-0-4-methoxybenzoyl-beta-D-xylopyranosyl)-(1->3)-(2-0-acetyl-alpha-L-arabinopyranoside)] or OSW-1 and its derivatives for cancer therapeutics” (priority 2003, published 2005)

How the values were obtained:
Assay type in all cases: cell-based, human
[1] = test system: pancreatic cancer AsPC-1 cells; test: MTT cell growth inhibition, AsPC-1; conditions: AsPC-1, 72 h or 96 h
Description: FIG. 3. Effect of Orsaponin (OSW-1) on cell growth in human pancreatic cancer cells. Human pancreatic cancer AsPC-1 cells were treated with the indicated concentrations of OSW-1 for 72 h or 96 h. Cell growth inhibition was measured by MTT assay.
FIG. 4. The anticancer activity of Orsaponin (OSW-1) is not affected by NFκB expression in pancreatic cancer cells. Human pancreatic cancer cells AsPC-1 with constitutive activation of NFκB or inactivation of NFκB by dominant negative IκBα (AsPC-1/IκBα-ND) were treated with the indicated concentrations of OSW-1 for 72 h. Cell growth inhibition was measured by MTT assay.
Cells and Cell Lines. Various cancer cell lines were used including the human leukemia cell lines HL-60 and ML-1 cells; human lymphoma cell line Raji; human pancreatic cancer cells AsPC-1; and human ovarian cancer cells SKOV3; human colon cancer cells HCT116; as well as isolated CLL cells from patients; and lymphocytes from normal donors. […]
1. […] After the indicated number of days (usually 3 days or 72 hours) of exposure to OSW-1, cell survival was assessed by the addition of the MTT dye to the wells. […] Survival of cells under orsaponin treatment was evaluated as a percentage of control cell growth. […]
The effect of Orsaponin and 17-deoxyorsaponin in pancreatic cancer cells was also assessed. […] Cell growth inhibition was measured by MTT assay.

[2] = test system: HCT116 p53−/− colon cancer cells; test: Colony formation assay, HCT116 p53−/−
Description: FIG. 6. Effect of OSW-1 on cell survival in human colon carcinoma cells. Human colon cancer cells with wild-type p53 (HCT116 p53+/+) and p53-null (HCT116 p53−/−) were treated with the indicated concentrations of OSW-1, and cell survival was measured by colony formation assay.
OSW-1 Inhibits Growth of Human Colon Cancer Cells. […] The HCT116 colon cancer cells with wild-type p53 (p53+/+) and p53-null (p53−/−) were treated with the various concentrations of orsaponin (OSW-1), and cell survival was measured by colony formation assay.

HL-60 cells = test: Apoptosis and cell cycle (annexin V, DNA fragmentation, flow cytometry), HL-60; conditions: HL-60, 0.5 nM
Description: FIGS. 1A-1B. Induction of apoptosis by Orsaponin (OSW-1) in human leukemia cells. HL-60 cells in exponentially growing phase were treated with 0.5 nM OSW-1 for the indicated times. Drug induced apoptosis was analyzed by the annexin V assay as shown in FIG. 1A and by the DNA fragmentation assay as shown in FIG. 1B. In FIG. 1A, the early and late stages of apoptotic cells appear in the low-right window and upper-right window, respectively.
FIG. 9. Mitochondrial respiration plays an important role in the cytotoxic action of Orsaponin (OSW-1). The parental HL-60 line and its mutant with mitochondrial respiration defect, clone C6F, were incubated with 0.5 nM OSW-1 for the indicated times. Apoptosis and change in cell cycle distribution were assayed by flow cytometry analysis.
2. Analysis of Apoptosis. Two methods were used to analyze apoptosis by assaying different events in the apoptotic pathways. Percentages of apoptotic cells induced by orsaponins of the invention were evaluated using flow cytometer. Different methods of staining cells for apoptosis were utilized to assess different aspects of apoptotic cascade.
(i) Annexin V Staining. Annexin V binds to cells that express phosphatidylserine on the outer layer of the cell membrane. […] Cells were analyzed on flow cytometer.
(ii) DNA Fragmentation Assay. […] The cell are then lysed in a solution containing 10 mM Tris-HCl, pH 7.5, 25 mM EDTA, 0.5% SDS, and […] protease K. After digestion and removal of the cellular protein from the cellular DNA, the isolated DNA is analyzed on a 1.8% agarose gel, and visualized by ethidium bromide staining. […]
Two cancer cell lines and their mutant mitochondrial respiration deficient clones were analyzed for apoptosis and changes in cell-cycle following exposure to OSW-1. […] Consistent with these observations, apoptosis was also detected by DNA fragmentation assays performed at 24 and 32 hours after HL-60 cells are treated with OSW-1; DNA fragmentation was not observed in C6F cells even at 32 hours of drug incubation (data not shown).

## COc1ccc(C(=O)OC2C(OC3C(O)COC(O[C@H]4C[C@H]5[C@@H]6CC=C7C[C@@H](O)CC[C@]7(C)[C@H]6CC[C@]5(C)[C@@]4(O)[C@H](C)C(=O)CCC(C)C)C3OC(C)=O)OCC(O)C2O)cc1 (stereo partly drawn) [OSW-1, 3β, 16β, 17 α-trihydroxycholost-5-en-22-one 16-O-(2-O-4-methoxybenzoyl-β-D-xylopyranosyl)-(1->3)-(2-O-acetyl-α-L-arabinopyranoside)]
[1]
  concentrations at which highly potent: 0.1 to 5 nM
[2]
  cell survival, colony formation: effectively kill the p53−/− cells
HL-60 cells; 16 hours
  change in cell cycle distribution: significant reduction of G1 phase cells and an increase of cells in the G2/M phase region
HL-60 cells; 24 h, flow cytometry
  apoptosis (subG1): a substantial portion of the drug-treated HL-60 cells became apoptotic
HL-60 cells; annexin V and DNA fragmentation
  time after incubation at which apoptosis occurred: 16 h
